Source: patent US3985742A, “Process for preparing 3-hydroxymethyl cephalosporins” (priority 1975, dated 1976)
Structures can show the parent of a compound that is named as a salt. Where two headings read alike, the source gives them in different places.

Assays:
[1] = tested on: Vibrio percolans MB-1272; assay: disc-plate bioassay using Vibrio percolans; conditions: Comamonas terrigena; for zone of inhibition at 100 µg/mL: MB1272, read-out: disc zone size, 100γ/ml
[2] = tested on: Escherichia coli W-MB-60; assay: disc zone bioassay of derivatives; format: cell-based; conditions: WMB60, 100γ/ml, read-out: disc zone size
From the text: (§1) Bioassay: the disc zone sizes in the following table are expressed in mm. for 100γ/ml of antibiotic.
(§2) Bioassay: The disc zone sizes in the following table are expressed in mm. for equal concentrations of antibiotic.

[3] = tested on: Pseudomonas stutzeri MB-1231; assay: disc zone bioassay of derivatives; format: cell-based; conditions: Stutzerimonas stutzeri, MB1231, 100γ/ml; read-out: disc zone size
From the text: as §1
(§3) Bioassay: the disc zone sizes in the following table are expressed in mm. for equal concentrations of antibiotic.
as §2

[4] = tested on: Salmonella gallinarum MB-1287; assay: disc zone bioassay of derivatives; format: cell-based; conditions: Salmonella enterica, 100γ/ml, read-out: disc zone size
From the text: as §3, §2

[5] = tested on: Proteus vulgaris; assay: disc-plate bioassay using Proteus vulgaris; conditions: for zone of inhibition at 100 µg/mL: read-out: disc zone size
[6] = tested on: Proteus morganii 356; assay: mouse protection test, clinical isolate; format: in vivo, mice; conditions: subcutaneous × 2 doses
From the text: In addition to the aforementioned in vivo trials of the product, a clinical isolate of Proteus morganii 356 which is resistant to cephalosporins and capable of degrading cephalosporin C, was employed in a mouse protection test performed in the same manner as reported above.

[7] = tested on: Proteus morganii 3202; assay: mouse protection test; format: in vivo, mice; parameters: dose or concentration left out as unconfirmed; conditions: × 2 doses, subcutaneous
Description: Methods: The method employed in this characterization is as follows: Female white Swiss mice, average weight 20-23 grams, were infected intraperitoneally with 3-20 times the number of organisms calculated to be lethal for 50% of the infected control animals (3-20 LD50 doses). At the time of infection and again 6 hours later, therapy was given by the designated route. Controls of the virulence of the culture and the toxicity of the antibiotic for uninfected mice were included in the tests. Seven days after infection the test was considered complete and the amount of the antibiotic (I) that would be required to protect 50% of the infected and treated animals was calculated by the method of Knudsen and Curtis; J. Amer. Stat. Assoc. Vol. 42: page 282 (1947).
The method employed in these studies is the same as described above with regard to the in vivo characterization of 810A. The results of these tests are described below in Table XIb:
Administration was by subcutaneous injection. At the completion of the test period, usually seven days after administration, the amount of product required to protect 50% of the mice (ED50) from this otherwise fatal injection was calculated: […]

[8] = tested on: Aerobacter cloacae MB-2646; assay: enzymatic inactivation by cell-free extract; conditions: for Antibiotic Activity Remaining: start 250 μg/ml
Description: The ability of Antibiotic 810A and cephalosporin C to withstand the degradative effect of the culture Aerobacter cloacae (MB-2646) was also determined. This culture is gram-negative and resistant to cephalosporin C. […] The source of the inactivating substance is a 1:160 dilution of the filtrate of an 18 hour 37° C. shake culture of Aerobacter cloacae MB-2646 in nutrient broth containing 0.2% yeast extract. Table XIV, infra, indicates the percent inactivation of Antibiotic 810A, cephalothin, cephaloridine and cephalosporin C on Vibrio percolans (MB-1272) via this method:
Using the same assay procedure as described above, Table XV, infra, indicates the relative resistance of Antibiotic 810A to enzymatic inactivation by Aerobacter cloacae. The starting concentration is 250 μg./ml. Results are expressed in μg./ml.

[9] = tested on: Alcaligenes faecalis MB-9; assay: bacterial inactivation by washed bacterial cells; conditions: start 4 mg/ml
[10] = tested on: Alcaligenes viscosus MB-12; assay: bacterial inactivation by washed bacterial cells; conditions: 4 hour; assayed on B. subtilis (MB-964); start 4 mg/ml
[11] = tested on: Proteus mirabilis 241; assay: bacterial inactivation; conditions: 4 hours; assayed on B. subtilis (MB-964)
Description: (§4) These cultures are: Escherichia coli 236, Proteus morganii 251, Proteus morganii 356 and Proteus mirabilis 241. […] In conducting the assay, individual mixtures of the organisms and one of the antibiotics were sampled after four hours incubation and assayed for residual antibiotic activity. The procedure is the same assay method as described above against Alcaligenes faecalis MB-9 and A. viscosus MB-12.

[12] = tested on: Proteus morganii 251; assay: bacterial inactivation; conditions: 4 hours; assayed on B. subtilis (MB-964)
Description: as §4

[13] = tested on: Escherichia coli 236; assay: bacterial inactivation; conditions: 4 hours; assayed on B. subtilis (MB-964)
Description: as §4

[14] = tested on: Proteus morganii 356; assay: bacterial inactivation; conditions: 4 hours; assayed on B. subtilis (MB-964)
Description: as §4

[15] = tested on: Escherichia coli, Chloramphenicol-resistant; assay: cross-resistance, disc-plate agar diffusion; format: cell-based; conditions: read-out: Inhibition Zone Diameter
[16] = tested on: Escherichia coli, Streptothricin-resistant; assay: cross-resistance, disc-plate agar diffusion; format: cell-based; conditions: read-out: Inhibition Zone Diameter
[17] = tested on: Staphylococcus aureus (Streptomycin-Streptothricin-resistant); assay: disc-plate agar diffusion, antibacterial spectrum; format: cell-based; conditions: read-out: Inhibition Zone Diameter
[18] = tested on: Sarcina lutea; assay: disc-plate agar diffusion, antibacterial spectrum; format: cell-based; conditions: Micrococcus luteus; 166 μg/ml; 25 °C; 7 mm = no zone; read-out: Inhibition Zone Diameter
[19] = tested on: Vibrio percolans; assay: disc-plate agar diffusion, antibacterial spectrum; format: cell-based; conditions: Comamonas terrigena; 166 μg/ml; 27 °C; 7 mm = no zone; read-out: Inhibition Zone Diameter
[20] = tested on: Escherichia coli, Oxytetracycline-resistant; assay: cross-resistance, disc-plate agar diffusion; format: cell-based; conditions: read-out: Inhibition Zone Diameter
[21] = tested on: Escherichia coli, Viomycin-resistant; assay: cross-resistance, disc-plate agar diffusion; format: cell-based; conditions: read-out: Inhibition Zone Diameter
[22] = tested on: Proteus vulgaris; assay: disc-plate agar diffusion, antibacterial spectrum; format: cell-based; conditions: 166 μg/ml, 37 °C, 7 mm = no zone, read-out: Inhibition Zone Diameter
[23] = tested on: Brucella bronchiseptica; assay: microbe, parasite or virus in culture; format: cell-based; conditions: Bordetella bronchiseptica, read-out: Inhibition Zone Diameter
[24] = tested on: Alcaligenes faecalis; assay: disc-plate agar diffusion, antibacterial spectrum; format: cell-based; conditions: 166 μg/ml, 37 °C, 7 mm = no zone, read-out: Inhibition Zone Diameter
[25] = tested on: Staphylococcus aureus; assay: disc-plate agar diffusion, antibacterial spectrum; format: cell-based; conditions: 166 μg/ml, 25 °C, 7 mm = no zone, read-out: Inhibition Zone Diameter
[26] = tested on: Escherichia coli W-MB-60; assay: special effects spectrum, disc-plate agar diffusion; format: cell-based; conditions: WMB60, 166 μg/ml, read-out: Inhibition Zone Diameter
[27] = tested on: Serratia marcescens; assay: disc-plate agar diffusion, antibacterial spectrum; format: cell-based; conditions: 166 μg/ml, 25 °C, 7 mm = no zone, read-out: Inhibition Zone Diameter
[28] = tested on: Pseudomonas aeruginosa; assay: disc-plate agar diffusion, antibacterial spectrum; format: cell-based; conditions: 166 μg/ml, 25 °C, 7 mm = no zone, read-out: Inhibition Zone Diameter
[29] = tested on: Streptococcus faecalis; assay: disc-plate agar diffusion, antibacterial spectrum; format: cell-based; conditions: Enterococcus faecalis; 166 μg/ml; 37 °C; 7 mm = no zone; read-out: Inhibition Zone Diameter
[30] = tested on: Escherichia coli, Neomycin-resistant; assay: cross-resistance, disc-plate agar diffusion; format: cell-based; conditions: read-out: Inhibition Zone Diameter
[31] = 2 hour, assayed on B. subtilis 964
[32] = 2 hour, assayed on V. percolans 1272
[33] = 2 hour, assayed on V. percolans (MB-1272)

`CO[C@@]1(NC(=O)CCC[C@@H](N)C(=O)O)C(=O)N2C(C(=O)O)=C(COC(N)=O)CS[C@@H]21` gave an IC (25 mm zone) ([1]; MB1272, read-out: concentration giving a 25 mm zone, Vibrio percolans) of 8 µg/mL.
With `CO[C@@]1(NC(=O)CCC[C@@H](N)C(=O)O)C(=O)N2C(C(=O)O)=C(CSc3nc(C)cs3)CS[C@@H]21` [7β-(D-5-amino-5-carboxyvaleramido)-3-(4-methylthiazol-2-ylmercaptomethyl)-7-methoxy-3-cephem-4-carboxylic acid] the zone of inhibition at 100 µg/mL [2] was 14 mm, the zone of inhibition at 100 µg/mL [3] was 13.5 mm and the zone of inhibition at 100 µg/mL [1] was 20 mm.
In the case of `CO[C@@]1(NC(=O)CCC[C@@H](N)C(=O)O)C(=O)N2C(C(=O)O)=C(CN)CS[C@@H]21` [7β-(D-5-amino-5-carboxyvaleramido)-3-(aminomethyl)-7-methoxy-3-cephem-4-carboxylic acid], the zone of inhibition at 100 µg/mL [3] is reported as 21 mm, the zone of inhibition at 5 µg/mL ([1]; MB1272, read-out: disc zone size, 5γ/ml) is reported as 20 mm and the zone of inhibition at 100 µg/mL [4] is reported as 21 mm.
With `COC(=Cc1ccc(O)cc1)C(=O)OCC1=C(C(=O)O)N2C(=O)[C@](NC(=O)CCC[C@@H](N)C(=O)O)(OC)[C@H]2SC1` [7β-(D-5-amino-5-carboxyvaleramido)-3-(α-methoxy-p-hydroxycinnamoyloxymethyl)-7-methoxy-3-cephem-4-carboxylic acid] the IC (25 mm zone) ([5]; read-out: concentration giving a 25 mm zone (bioassay potency)) was 167 µg/mL.
With `O=C(Cc1cccs1)N[C@@H]1C(=O)N2C(C(=O)[O-])=C(C[n+]3ccccc3)CS[C@H]12` [Cephaloridine] the “ED50 (average of Two Trials)” value [6] was 9,270 μg, the protection [7] was “failed to protect” and the “Antibiotic Activity Remaining” value [8, 31] was < 10 µg/mL. For the same compound, the “Antibiotic Activity Remaining” value [8, 32] was < 10 µg/mL and the “Percent Inactivation After Incubation With Cell-Free Extract” value ([8]; bacterial culture filtrate, 2 h) was 96%.
`CC(=O)OCC1=C(C(=O)O)N2C(=O)[C@@H](NC(=O)CCC[C@@H](N)C(=O)O)[C@H]2SC1` [Cephalosporin C, reference compound] was tested, and the “Percent Inactivation After Incubation With Washed Bacterial Cells” value ([9]; 3 hour, assayed on B. subtilis (MB-964)) was > 99%, the “Percent Inactivation After Incubation With Washed Bacterial Cells” value ([9]; 3 hour, assayed on V. percolans (MB-1272)) was > 99% and the “Percent Inactivation After Incubation With Washed Bacterial Cells” value ([9]; 4 hour, assayed on B. subtilis (MB-964)) was > 99%. For the same compound, the “Percent Inactivation After Incubation With Washed Bacterial Cells” value [10] was > 99%, the “Percent Inactivation After Incubation With Cell-Free Extract” value [8, 33] was 96% and the percent inactivation [11] was 72%. For the same compound, the percent inactivation [12] was > 99%, the percent inactivation [13] was > 99% and the percent inactivation [14] was > 99%.
`CC(=O)OCC1=C(C(=O)O)N2C(=O)[C@@H](NC(=O)Cc3cccs3)[C@H]2SC1` [Cephalothin] was tested, and the “ED50 (average of Two Trials)” value [6] was > 20,000 μg, the protection [7] was “failed to protect” and the “Percent Inactivation After Incubation With Cell-Free Extract” value [8, 33] was 66%. For the same compound, the “Antibiotic Activity Remaining” value [8, 31] was 140 µg/mL and the “Antibiotic Activity Remaining” value [8, 32] was 85 µg/mL.
Compound `CO[C@@]1(NC(=O)CCC[C@@H](N)C(=O)O)C(=O)N2C(C(=O)O)=C(COC(N)=O)CS[C@@H]21` [Disodium Salt of 842A] has a zone of inhibition at 100 µg/mL [2] of 18 mm, a zone of inhibition at 100 µg/mL [3] of 22 mm and a zone of inhibition at 100 µg/mL [1] of 18 mm. It also gave a zone of inhibition at 100 µg/mL [4] of 27 mm and a zone of inhibition at 100 µg/mL [5] of 27 mm.
In the case of `CO[C@@]1(NC(=O)CCC[C@@H](N)C(=O)O)C(=O)N2C(C(=O)O)=C(COC(N)=O)CS[C@@H]21` [Free Acid], the zone of inhibition at 166 µg/mL [15] is reported as 17 mm, the zone of inhibition at 166 µg/mL [16] is reported as 14 mm and the zone of inhibition at 166 µg/mL [17] is reported as 11 mm. It also gave a zone of inhibition at 166 µg/mL [18] of 10 mm, a zone of inhibition at 166 µg/mL [19] of 30 mm and a zone of inhibition at 166 µg/mL [20] of 23 mm. For the same compound, the zone of inhibition at 166 µg/mL [21] was 16 mm, the zone of inhibition at 166 µg/mL [22] was 22 mm and the zone of inhibition at 166 µg/mL [23] was 24 mm. The zone of inhibition at 166 µg/mL [24] was 27 mm, the zone of inhibition at 166 µg/mL [25] was 7 mm and the zone of inhibition at 166 µg/mL ([26]; 0.1 M phosphate buffer pH 7, 25 °C) was 29 mm. The zone of inhibition at 166 µg/mL ([26]; 0.1 M phosphate buffer pH 9, 25 °C) was 22 mm, the zone of inhibition at 166 µg/mL ([26]; human blood plasma 20%, 25 °C) was 22 mm and the zone of inhibition at 166 µg/mL [27] was 7 mm. For the same compound, the zone of inhibition at 166 µg/mL [28] was 7 mm, the zone of inhibition at 166 µg/mL [29] was 7 mm and the zone of inhibition at 166 µg/mL [30] was 17 mm.
Work on `CO[C@@]1(NC(=O)CCC[C@@H](N)C(=O)O)C(=O)N2C(C(=O)O)=C(CSC(=N)N)CS[C@@H]21` [S-[7β-(D-5-amino-5-carboxyvaleramido)-4-carboxy-7-methoxy-3-cephem-3-yl-methyl]thiouronium] yielded a zone of inhibition at 100 µg/mL [3] of 22 mm, a zone of inhibition at 100 µg/mL [1] of 27 mm and a zone of inhibition at 100 µg/mL [4] of 23 mm. It also gave a zone of inhibition at 100 µg/mL [5] of 17 mm.
